{"source": "patent US12667546B2", "about": "“Methods for manipulating cell state transitions in cancer” (AGENCY FOR SCIENCE, TECHNOLOGY AND RESEARCH, priority 2018, dated 2026)", "key": {"[1]": {"system": "SERPINE1prom-Luc reporter in NAMEC8 cells", "assay": "Dual-Glo luciferase assay of SERPINE1prom-Luc reporter (FF/Ren)", "format": "cell-based, human", "conditions": "Homo sapiens, 72 h, primary screen; NAMEC8-SERPINE1prom-Luc cells grown 3 days with compound; relative to DMSO; read-out: Avr FF/Renilla from DMSO", "from_the_text": "pGreenFire1-mCMV was cut using ClaI and SpeI and gel purified. Promoter sequences of genes Zeb1, Serpine1, CDH1, CD24, CD44, CD166 were amplified from human genomic DNA with pre-designed primers containing ClaI and SpeI restriction cut sites using AccuPrime Taq DNA Polymerase (Thermo Fisher Scientific). PCR products were then digested with restriction enzymes and gel-purified. Vector was ligated with PCR insert using Quick Ligase (Fermentas) and transformed into Stb12 competent cells. Colonies were picked and inoculated into TB media with ampicillin. Plasmids were then isolated using a plasmid miniprep kit (Qiagen) and sent for sequencing (1 stBASE Laboratories). After verifying the plasmid sequence, transfection into HEK293 cells was carried out to generate lentivirus. Transfection was carried out using FuGENE 6 (Promega). Viral supernatant was harvested at 24 h and 48 h. NAMEC8 cells were then infected twice with virus using polybrene ([…]) and checked for good transduction efficiency using Dual-Glo Luciferase System (Promega).\nStock plates of compound libraries were kindly prepared by GIS CHiP facility at 1 mM concentration in DMSO. NAMEC8-SERPINE1prom-Luc cells were seeded into 384 well plates at a density of 700 cells/well in a total volume of 50 μl, using an automated dispensing system (BioTek). 0.5 μl of compounds were then added to the wells the following day using a robotic pin transfer with a Bravo workstation (Agilent Technologies). Cells were then grown for 3 days and promoter-luciferase activity was measured using the Dual-Glo Luciferase System (Promega).\nAssay was carried out according to manufacturer's instructions. To measure luciferase activity in 384 well plates, media was first removed from the plate. Firefly luciferase activity was determined by adding 30 μl Dual-Glo Luciferase substrate (Promega) to the wells and incubated for 10 min before measuring luminescence using a TECAN M1000 Pro plate reader. 15 μl Dual-Glo Stop & Glo substrate was then added to the wells, incubated for 10 min and measuring luminescence on the plate reader to determine Renilla luciferase activity. Promoter luciferase activity is then calculated by taking Firefly luciferase over Renilla luciferase."}, "SUM159 [2]": {"system": "SUM159", "assay": "Cell morphology of treated SUM159", "format": "cell-based, human", "conditions": "bexarotene, TTNPB 1 μM", "method": "HMLE-Twist-ER cells were generated as described. For EMT-induction, 100 nM of 4-hydroxytamoxifen in ethanol was added to the culture medium every 48 h to induce Twist expression. Control cells were treated with ethanol. MCF7-Slug+Sox9 cells were generated as previously described. HMLE-Zeb1 cells were generated by infection with FUW-Zeb1 and rTTA. Doxycycline was added to the culture medium every 48 h to induce Zeb1 expression. To generate tumorigenic cells from NAMEC8, cells were infected with pWZL-Blast-Ras. MCF7, MCF7-Ras, SUM159 were maintained as previously described. All cell cultures were maintained at 37° C. with 5% CO2."}, "SUM159 [3]": {"system": "SUM159", "assay": "Expression of EMT and lineage markers in SUM159", "format": "cell-based, human", "method": "(§1) Cells were rinsed twice in ice-cold PBS. Total RNA was extracted using Trizol (Invitrogen) and column-purified with RNeasy kits (Qiagen). cDNA synthesis was performed with 500 ng of total RNA at 37° C. for 2 h using the SuperScript III First-Strand Synthesis System (Thermo Fisher Scientific), and subsequently diluted 5-fold. mRNA levels were measured with gene-specific primers listed below using the ABI Prism 7900HT Sequence Detection System 2.2 (Applied Biosystems). Results were normalized to GAPDH and analyzed using SDS 2.2 software.\nCells were harvested and scraped from culture dishes in ice-cold PBS. They were then centrifuged at 12000 rpm for 5 min at 4° C. The pellets were then snap frozen in liquid nitrogen or lysed in ice-cold RIPA lysis buffer (Thermo Scientific) and left on ice for 30 min. Subsequently, the lysates were centrifuged at 12000 rpm for 10 min at 4° C. The supernatants were then aspirated and placed in fresh tubes. Protein concentrations were determined using Coomaisse Blue. 50-80 μg total protein was mixed with NuPAGE™ LDS sample buffer and heated at 70° C. for 10 min. Samples were loaded into NuPAGE™ 4-12% Bis-Tris gels (precast polyacrylamide gel; Invitrogen™). Gel electrophoresis was done at 200V for 1.5 h and then blotted onto nitrocellulose membranes (Trans-Blot Turbo™ transfer pack; Bio-Rad). […]"}, "MCF7-Ras": {"system": "MCF7-Ras", "assay": "Tumor growth of ex vivo pre-treated MCF7-Ras injected subcutaneously", "format": "in vivo, NSG mice", "conditions": "ex vivo treatment before injection", "method": "All animal experiments were approved by the Agency for Science Technology and Research Singapore-Biological Resource Centre IACUC (Protocol number 140940). For pre-treated SUM159 and MCF7-Ras cells, 1×10^6 cells were suspended in 100 μl media containing 50% matrigel and injected subcutaneously into both flanks of female NSG mice. The NSG mice were checked for tumor by palpation once a week and tumors were harvested when they reached ˜15 mm in diameter. For treatment in NSG mice, 1×10^5 NAMEC8-Ras cells were suspended in 100 μl media containing 50% matrigel and injected subcutaneously into both flanks of NSG mice. The NSG mice were checked for tumor formation by palpation and when tumors were about 3 mm, mice were randomized into two groups: vehicle (5% DMSO in corn oil) and treatment (Bexarotene, 100 mg/kg/day oral dosing). Tumor size was measured every week using Vernier calipers and mice were sacrificed when tumors reached ˜15 mm or after ˜4 weeks of treatment. For patient-derived cells, 2×10^6 cells were injected subcutaneously per site in NSG mice."}, "[4]": {"system": "Estrogen response element (ERE)-luciferase reporter in NAMEC8", "assay": "ERE-luciferase activity assay", "format": "cell-based, human", "method": "ERE luciferase construct was kindly provided by Alan Prem Kumar, CSI, Singapore. To measure the ERE-luciferase activity, cells were seeded 24 h before transfection. ERE-luciferase (1 μg) and NSV-Renilla (0.1 μg) were packaged using Lipofectamine 2000 and transfected into NAMEC8. 24 h post-transfection, cells were reseeded into 96 well plates for drug treatment. Firefly and Renilla luciferase activities were measured with the Dual-Glo Luciferase System (Promega) 24 h post-treatment."}, "NAMEC8 and BC2.2": {"system": "NAMEC8 and BC2.2", "assay": "Gene expression of ER target genes", "format": "cell-based, human", "method": "as §1"}}}
{"compound": "C=C(c1ccc(C(=O)O)cc1)c1cc2c(cc1C)C(C)(C)CCC2(C)C", "note": "[Bexarotene]", "values": [{"measurement": "activity at 10 µM", "setting": "[1]", "value": 31, "unit": "%"}, {"measurement": "cell morphology", "setting": "SUM159 [2]", "value": "dramatic change in morphology from scattered, spindle and fibroblastic-like cells to an epithelial-like morphology"}, {"measurement": "expression of EMT and lineage markers / epithelial features", "setting": "SUM159 [3]", "value": "downregulation of mesenchymal signature markers (ZEB1, SERPINE1, FN1, SLUG) and the concomitant gain of epithelial marker CDH1"}, {"measurement": "tumor cell growth", "setting": "MCF7-Ras", "value": "no impact on the tumor cell growth was observed"}, {"measurement": "ERE-luciferase reporter activity", "setting": "[4]", "value": "increased"}, {"measurement": "expression of ER target genes (ABCA3, NRIP1, TFF1, CREB1)", "setting": "NAMEC8 and BC2.2", "value": "strongly elevated"}]}
